Measured values published in PubChem BioAssay (NCI).
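Grown in 96-well plates, cells were treated for 48 hours with each compound at five concentrations. Insufficient inhibition: endpoint recorded as highest concentration tested. GI50 = concentration required for 50% inhibition of growth. TGI is the concentration that stops growth completely.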

Experiments:
Assay in all cases: NCI tumour cell line growth inhibition, 48 h
[1] = test system: UACC-62 melanoma
[2] = test system: TK-10 renal
[3] = test system: EKVX NSCLC
[4] = test system: HOP-92 NSCLC
[5] = test system: SW-620 colon
[6] = test system: T-47D breast
[7] = test system: SNB-19 CNS
[8] = test system: SF-268 CNS
[9] = test system: HOP-62 NSCLC
[10] = test system: OVCAR-5 ovarian

| SMILES | TGI [1] [µM] | TGI [2] [µM] | TGI [3] [µM] | TGI [4] [µM] | TGI [5] [µM] | TGI [6] [µM] | TGI [7] [µM] | TGI [8] [µM] | TGI [9] [µM] | TGI [10] [µM] | GI50 [1] [µM] | GI50 [2] [µM] | GI50 [3] [µM] | GI50 [4] [µM] | GI50 [5] [µM] | GI50 [6] [µM] | GI50 [7] [µM] | GI50 [8] [µM] | GI50 [9] [µM] | GI50 [10] [µM] |
| --- | --- | --- | --- | --- | --- | --- | --- | --- | --- | --- | --- | --- | --- | --- | --- | --- | --- | --- | --- | --- |
| C=C1C(=O)OC2CC(C)C3CC(O)OC(OCC)C3(C)CC12 (centres undefined) | > 52.1 | 45.2 | > 62.2 | 35.1 | 19 | 33.1 | > 75.5 | 34 | 47.6 | 54.4 |  |  |  |  |  |  |  |  |  |  |
| COC(=O)C1=C(C(=O)OC)C2(C)C=CC1O2 (centres undefined) | 31.9 | 8.24 | 41.3 | 24.4 | 17.2 | 13 | > 100 | > 100 | > 100 | 31.5 |  |  |  |  |  |  |  |  |  |  |
| c1cncc(CNCc2cccnc2)c1 | > 100 | > 100 | > 100 | > 100 | > 100 | > 100 | > 100 | > 100 | > 100 | > 100 |  |  |  |  |  |  |  |  |  |  |
| Cc1nc2c(n1C)C(=O)c1ccccc1C2=O | > 100 | > 100 | > 100 | > 100 | > 100 | > 100 | > 100 | > 100 | > 100 | > 100 | 56 | > 100 | 60.4 | > 100 | 52 | 87.4 | 91.3 | > 100 | > 100 | > 100 |
| CCN(c1cc(-c2ccc(CN3CCOCC3)cc2)cc(C(=O)NCc2c(C)cc(C)[nH]c2=O)c1C)C1CCOCC1 | 31.6 | > 73.6 | > 100 | > 57 | 52.4 | 53.4 | > 84.5 | > 93.6 | 99.2 | > 82.5 | 16 | 25.2 | 33.6 | 16.8 | 20.7 | 18.9 | 37.4 | 26.2 | 30.7 | 37.7 |
| Cn1cc(-c2ccc3nnc(Sc4ccc5ncccc5c4)n3n2)cn1 | > 100 | > 100 | > 100 | > 71.4 | > 100 | > 100 | > 100 | > 100 | > 100 | > 100 | > 100 | 40.7 | 97 | 7.07 | > 100 | 99.3 | 47.3 | 60.2 | 30.9 | 61.9 |
| COC(=O)C1C(O)C(C)C(O)C(C)C=C(C)C2=C3C(=C(C)C(=O)c4c(O)c(c(C)c(OC(C)=O)c43)NC(=O)C(C)=C/C=C\C(C)C(O)C(C)C1O)OCO2 (centres undefined) | 74.5 | > 100 | > 100 | > 100 | 56.4 | > 100 | > 100 | 44.9 | > 100 | > 100 |  |  |  |  |  |  |  |  |  |  |
| CN(C)CCSS(=O)(=O)O | > 100 | > 100 | > 100 | > 100 | > 100 | > 100 | > 100 | > 100 | > 100 | > 100 |  |  |  |  |  |  |  |  |  |  |
| Cc1nc(Nc2cccnc2)sc1C(=O)/C=C/c1ccc(Cl)cc1 | 5.84 | 12.1 | > 100 | 15.2 | 4.75 | 29.4 | 5.99 | > 100 | 7.6 | 31.2 | 2.32 | 3.53 | 6.99 | 3.23 | 2.08 | 2.57 | 2.31 | 4.34 | 2.56 | 2.87 |
| C1CC2CN(CCCN3CCOCC3)C(C1)O2 (centres undefined) | > 100 | > 100 | > 100 | > 100 | > 100 | > 100 | > 100 | > 100 | > 100 | > 100 |  |  |  |  |  |  |  |  |  |  |
| S=c1nc(N/N=C/c2ccco2)c2cn[nH]c2[nH]1 | > 100 | > 100 | > 100 | > 100 | > 100 | 48.1 | > 100 | > 100 | > 100 | > 100 | 33.8 | > 100 | 51 | 71.4 | 51 | 1.95 | > 100 | 48.4 | > 100 | > 100 |
| COC(=O)COc1ccc(/C=C2/N=C(c3ccccc3)N(c3c(C)n(C)n(-c4ccccc4)c3=O)C2=O)cc1 | 32.1 | 34.1 | > 100 | 55.1 | 50.6 | 61.2 | > 100 | 30.5 | 97.7 | > 100 | 17.6 | 18.5 | 37.8 | 25.1 | 22 | 21.3 | 36.3 | 12.8 | 31.7 | 62.4 |
| O=c1/c(=C\c2ccc(F)cc2)sc2n1C(c1ccc(F)cc1)C1=C(N=2)c2ccc3ccccc3c2OCC1 (centres undefined) | > 100 | > 100 | > 100 | > 100 | > 100 | > 100 | > 100 | > 100 | > 100 | > 100 | > 100 | > 100 | > 100 |  | > 100 | > 100 | > 100 | > 30.8 | > 100 | > 100 |
| O=C(Nn1c(-c2ccccc2)nc2ccccc2c1=O)c1ccccc1O | 77.2 | > 100 | > 100 | > 100 | > 100 | > 100 | > 100 | > 100 | > 100 | > 100 |  |  |  |  |  |  |  |  |  |  |
| Cc1c2c(c(C)c3c4c(oc13)CCCC4)C=NCC2 | 29.6 | 25.4 | 32 | 25.4 | 59.3 | > 100 | 53.5 | 41.2 | 60.6 | 32.1 |  |  |  |  |  |  |  |  |  |  |
